Source: patent US12622895B2, “Anti-neurodegenerative combinations and use for treatment of neurodegenerative diseases” (ALTO NEUROSCIENCE, INC., priority 2018, dated 2026)
Read-outs that look alike come from different tables or passages of the source.

Assays:
subjects = conditions: in vivo
PD patients = conditions: doses approved for the motor symptoms of PD; 535 PD patients; cited from earlier work
patients [1] = conditions: in vivo; cited from earlier work
[2] = target: human wild-type alpha-synuclein (Homo sapiens, UniProt P37840); conditions: by H2O2 plus cytochrome c; cited from earlier work
[3] = test system: human neuroblastoma SH-SY5Y cells; conditions: cited from earlier work
mouse PD model = conditions: cited from earlier work
[4] = test system: α-synuclein in peripheral blood exosomes; conditions: PD patients, approved therapeutic doses; cited from earlier work
patients [5] = conditions: 5 mg/day of pramipexole, cited from earlier work
Parkinsonian patient = conditions: one patient, cited from earlier work
alpha-synuclein = alpha-synuclein (Homo sapiens, UniProt P37840); conditions: cited from earlier work
MPTP induced damage = conditions: toxin-induced model of PD; cited from earlier work
6-OHDA induced damage = conditions: toxin-induced model of PD; cited from earlier work
rodent = conditions: fluoxetine added to pramipexole; cited from earlier work
rodents = conditions: large doses, acute systemic administration; cited from earlier work
Caenorhabditis elegans = conditions: C. elegans; cited from earlier work
brain cell systems = conditions: cited from earlier work
[6] = test system: patients with secondary progressive multiple sclerosis; conditions: high-dose, 140 patients, cited from earlier work
animals = conditions: cited from earlier work
[7] = test system: A53T α-synuclein-induced neurodegeneration; conditions: cited from earlier work
[8] = test system: rat corticostriatal slices; conditions: 0.3, 1, 3 and 10 μM; cited from earlier work
Engrailed mutant mice = conditions: cited from earlier work
patients with PD = conditions: 25 mg-50 mg, alone or with levodopa; cited from earlier work
[9] = test system: mice that received 6-hydroxydopamine; conditions: injection, 30 mg/kg; cited from earlier work
MPTP-treated mice = conditions: 20 mg/kg; cited from earlier work

## CCCN[C@H]1CCc2nc(N)sc2C1 [Pramipexole, (S)-6-propylamino-4,5,6,7-tetrahydro-1,3-benzothiazole-2-amine]
subjects; human
  first intolerable dose reached: All subjects reached FID-1
subjects
  dose limiting toxicity: gastro-intestinal adverse events
PD patients
  neuroprotective (disease modifying) activity: failed to evidence neuroprotective (i.e., disease modifying) activity
Patients [1]
  side effects of the approved doses, often dose-limiting: nausea, vomiting, somnolence, confusion, postural hypotension, and hallucinations as well as gastrointestinal disturbances
[2]
  in vitro oligomerization of human wild-type alpha-synuclein: decreases
[3]
  aggregation of alpha-synuclein: inhibit the aggregation of alpha-synuclein
Mouse PD model; mouse PD model
  toxic effects of rotenone on dopaminergic neurons: inhibits the toxic effects of rotenone on dopaminergic neurons
Mouse PD model; rotenone mouse PD model
  immunoreactivity for alpha-synuclein: reducing immunoreactivity for alpha-synuclein
[4]
  magnitude of the effect on alpha-synuclein expression: small
Patients [5]
  nausea, patients: 76%
  vomiting, patients: 39%
Patients [5]; presumably intolerable GI adverse events
  patients not able to complete the study: 36%
Parkinsonian patient; extended-release formulation, pramipexole 4.5 mg/day with levodopa, entcapone, selegiline and zonisamide
  hallucinations: induce hallucinations
Parkinsonian patient; immediate release formulation, same combination
  hallucinations: not
alpha-synuclein
  oligomerization (and aggregation) of alpha-synuclein in vitro: diminishes synuclein oligomer formation

## CNCCC(Oc1ccc(C(F)(F)F)cc1)c1ccccc1 (stereo not drawn) [fluoxetine, 1-methylamino-3-phenyl-3-[4-(trifluoromethyl)phenoxy]propane]
MPTP induced damage
  MPTP induced damage: protect against
6-OHDA induced damage
  6-OHDA induced damage: protect against
rodent
  activity of pramipexole in the forced swimming test: enhance the activity of pramipexole
rodents
  extracellular concentrations of norepinephrine and dopamine: significant increase
Caenorhabditis elegans
  amyloid-β oligomers: reducing amyloid-β oligomers
  amyloid-β-induced paralysis: significantly delay
  life span: extend life span
  thermal stress resistance: increase thermal stress resistance

## CCC(C)(C)C(=O)O[C@H]1C[C@@H](C)C=C2C=C[C@H](C)[C@H](CC[C@@H]3C[C@@H](O)CC(=O)O3)[C@H]21 [simvastatin, (1S,3R,7S,8S,8aR)-8-{2-[(2R,4R)-4-hydroxy-6-oxotetrahydro-2H-pyran-2-yl]ethyl}-3,7-dimethyl-1,2,3,7,8,8a-hexahydronaphthalen-1-yl 2,2-dimethylbutanoate]
Brain cell systems; 6-OHDA-lesioned cell model (Xu et al. 2013)
  dopaminergic neurodegeneration: robust neuroprotection against dopaminergic neurodegeneration
Brain cell systems; brain cell systems
  consequences of the dopaminergic neurotoxin 6-OHDA: protect against the deleterious consequences of the dopaminergic neurotoxin 6-hydroxydopamine
[6]
  tolerability and safety: well tolerated and safe
[6]; versus placebo
  annualised rate of whole-brain atrophy: reduced the annualised rate of whole-brain atrophy compared with placebo
animals
  consequences of dopaminergic neurotoxin MPTP: protect against the deleterious consequences of dopaminergic neurotoxin MPTP

## NS(=O)(=O)Cc1noc2ccccc12 [zonisamide, benzo[d]isoxazol-3-ylmethanesulfonamide]
[7]; after transgene injection
  duration of the effect: lasted at least eight weeks
[7]; oral, 40 mg/kg/day
  survival of nigrostriatal dopamine neurons: no impact
[7]; oral, 40 mg/kg/day, four weeks after injection of the viral vector, versus control group
  pace of degeneration: significantly delayed the pace of degeneration
[8]
  rotenone-induced toxicity (loss of corticostriatal field potential amplitude): significantly reduced the rotenone-induced toxicity
Engrailed mutant mice; chronic administration, versus saline
  survival of nigrostriatal dopaminergic neurons, striatal terminals and motor function: improved the survival of nigrostriatal dopaminergic neurons as well as their striatal dopaminergic terminals and motor function
Engrailed mutant mice; versus saline-treated controls
  brain-derived neurotrophic factor content in striatum and ventral midbrain: increased
Patients with PD
  motor symptoms: improve motor symptoms
[9]
  loss of nigral dopamine neurons: prevented the loss of nigral dopamine neurons
MPTP-treated mice
  loss of nigral TH-positive neurons: reduced the loss of nigral TH-positive neurons
  striatal dopamine depletion: attenuating the associated striatal dopamine depletion
alpha-synuclein
  oligomerization (and aggregation) of alpha-synuclein in vitro: inhibits the in vitro oligomerization and aggregation of alpha-synuclein
